From ChEMBL document CHEMBL4706545, “Antiproliferative effect of mitochondria-targeting allobetulin 1,2,3-triazolium salt derivatives and their mechanism of inducing apoptosis of cancer cells” (Eur J Med Chem, 2020)
Calls of active or inactive are those of the source. The calls are words filed in the database; no cut-off is given here.

How the values were obtained:
[1] = system: ECa-109 cell line; test: Induction of ROS-mediated apoptosis in human ECa-109 cells assessed as viable cells at 1 uM incubated for 48 hrs by annexin V-PE and 7-AAD staining based flow cytometry analysis (reference value: 92.7 %); assay type: functional; conditions: read-out: Activity
[2] = system: ECa-109 cell line; test: Induction of cell cycle arrest in human ECa-109 cells assessed as accumulation in G2/M phase at 4 uM incubated for 48 hrs by PI staining based flow cytometry analysis (reference value: 8.39 %); assay type: functional
[3] = system: ECa-109 cell line; test: Induction of cell cycle arrest in human ECa-109 cells assessed as accumulation in G0/G1 phase at 2 uM incubated for 48 hrs by PI staining based flow cytometry analysis (reference value: 52.28 %); assay type: functional
[4] = system: ECa-109 cell line; test: Induction of ROS-mediated apoptosis in human ECa-109 cells assessed as late apoptotic cells at 4 uM incubated for 48 hrs in presence of NAC by annexin V-PE and 7-AAD staining based flow cytometry analysis (reference value: 2.98 %); assay type: functional
[5] = system: ECa-109 cell line; test: Induction of ROS-mediated apoptosis in human ECa-109 cells assessed as necrotic cells at 1 uM incubated for 48 hrs by annexin V-PE and 7-AAD staining based flow cytometry analysis (reference value: 0.729 %); assay type: functional
[6] = system: ECa-109 cell line; test: Induction of cell cycle arrest in human ECa-109 cells assessed as accumulation in G2/M phase at 1 uM incubated for 48 hrs by PI staining based flow cytometry analysis (reference value: 8.39 %); assay type: functional
[7] = system: ECa-109 cell line; test: Induction of apoptosis in human ECa-109 cells assessed as late apoptotic cells at 4 uM incubated for 48 hrs by annexin-V-FITC and PI staining based fluorescence microscopic analysis (reference value: 2.01 %); assay type: functional
[8] = system: ECa-109 cell line; test: Induction of ROS-mediated apoptosis in human ECa-109 cells assessed as early apoptotic cells at 2 uM incubated for 48 hrs by annexin V-PE and 7-AAD staining based flow cytometry analysis (reference value: 2.70 %); assay type: functional
[9] = system: ECa-109 cell line; test: Induction of ROS-mediated apoptosis in human ECa-109 cells assessed as early apoptotic cells at 4 uM incubated for 48 hrs by annexin V-PE and 7-AAD staining based flow cytometry analysis (reference value: 2.70 %); assay type: functional
[10] = system: ECa-109 cell line; test: Induction of apoptosis in human ECa-109 cells assessed as decrease in caspase-3 incubated for 48 hrs by Western blot analysis; assay type: functional, cell-based; conditions: dose 1-4 µM
[11] = system: ECa-109 cell line; test: Induction of apoptosis in human ECa-109 cells assessed as late apoptotic cells incubated for 48 hrs by annexin-V-FITC and PI staining based fluorescence microscopic analysis; assay type: functional, cell-based; conditions: dose 1-4 µM
[12] = system: ECa-109 cell line; test: Induction of ROS-mediated apoptosis in human ECa-109 cells assessed as late apoptotic cells at 4 uM incubated for 48 hrs by annexin V-PE and 7-AAD staining based flow cytometry analysis (reference value: 3.89 %); assay type: functional
[13] = system: ECa-109 cell line; test: Induction of apoptosis in human ECa-109 cells assessed as decrease in caspase-8 incubated for 48 hrs by Western blot analysis; assay type: functional, cell-based; conditions: dose 1-4 µM
[14] = system: ECa-109 cell line; test: Induction of apoptosis in human ECa-109 cells assessed as late apoptotic cells at 2 uM incubated for 48 hrs by annexin-V-FITC and PI staining based fluorescence microscopic analysis (reference value: 2.01 %); assay type: functional
[15] = system: ECa-109 cell line; test: Induction of cell cycle arrest in human ECa-109 cells assessed as accumulation in G0/G1 phase at 4 uM incubated for 48 hrs by PI staining based flow cytometry analysis (reference value: 52.28 %); assay type: functional
[16] = system: ECa-109 cell line; test: Induction of apoptosis in human ECa-109 cells assessed as downregulation of Bcl-2 incubated for 48 hrs by Western blot analysis; assay type: functional, cell-based; conditions: dose 1-4 µM
[17] = system: ECa-109 cell line; test: Induction of apoptosis in human ECa-109 cells assessed as concentrated chromatin at 1 to 4 uM incubated for 48 hrs by Hoechst staining based fluorescence microscopic analysis; assay type: functional, cell-based; conditions: dose 1-4 µM
[18] = system: ECa-109 cell line; test: Induction of ROS-mediated apoptosis in human ECa-109 cells assessed as necrotic cells at 1 uM incubated for 48 hrs in presence of NAC by annexin V-PE and 7-AAD staining based flow cytometry analysis (reference value: 1.09 %); assay type: functional
[19] = system: SGC-7901; test: Induction of apoptosis in human SGC-7901 cells assessed as decrease in PARP incubated for 48 hrs by Western blot analysis; assay type: functional, cell-based; conditions: dose 1-4 µM
[20] = Selectivity index, ratio of IC50 for cytotoxicity against human HL7702 cells to IC50 for cytotoxicity against human SGC-7901 cells
[21] = system: SGC-7901; test: Induction of apoptosis in human SGC-7901 cells assessed as decrease in caspase-9 incubated for 48 hrs by Western blot analysis; assay type: functional, cell-based; conditions: dose 1-4 µM
[22] = system: ECa-109 cell line; test: Induction of apoptosis in human ECa-109 cells assessed as decrease in PARP incubated for 48 hrs by Western blot analysis; assay type: functional, cell-based; conditions: dose 1-4 µM
[23] = system: SGC-7901; test: Induction of apoptosis in human SGC-7901 cells assessed as decrease in caspase-3 incubated for 48 hrs by Western blot analysis; assay type: functional, cell-based; conditions: dose 1-4 µM
[24] = system: SGC-7901; test: Induction of ROS-mediated apoptosis in human SGC-7901 cells assessed as viable cells at 4 uM incubated for 48 hrs in presence of NAC by annexin V-PE and 7-AAD staining based flow cytometry analysis (reference value: 94.8 %); assay type: functional; conditions: read-out: Activity
[25] = system: SGC-7901; test: Induction of ROS-mediated apoptosis in human SGC-7901 cells assessed as necrotic cells at 1 uM incubated for 48 hrs in presence of NAC by annexin V-PE and 7-AAD staining based flow cytometry analysis (reference value: 0.623 %); assay type: functional
[26] = system: SGC-7901; test: Induction of apoptosis in human SGC-7901 cells assessed as viable cells at 4 uM incubated for 48 hrs by annexin-V-FITC and PI staining based fluorescence microscopic analysis (reference value: 93.8 %); assay type: functional; conditions: read-out: Activity
[27] = system: SGC-7901; test: Induction of apoptosis in human SGC-7901 cells assessed as late apoptotic cells at 2 uM incubated for 48 hrs by annexin-V-FITC and PI staining based fluorescence microscopic analysis (reference value: 3.87 %); assay type: functional
[28] = system: SGC-7901; test: Induction of apoptosis in human SGC-7901 cells assessed as downregulation of Bcl-2 incubated for 48 hrs by Western blot analysis; assay type: functional, cell-based; conditions: dose 1-4 µM
[29] = system: SGC-7901; test: Induction of ROS-mediated apoptosis in human SGC-7901 cells assessed as early apoptotic cells at 1 uM incubated for 48 hrs in presence of NAC by annexin V-PE and 7-AAD staining based flow cytometry analysis (reference value: 1.15 %); assay type: functional
[30] = system: SGC-7901; test: Induction of ROS-mediated apoptosis in human SGC-7901 cells assessed as early apoptotic cells at 2 uM incubated for 48 hrs by annexin V-PE and 7-AAD staining based flow cytometry analysis (reference value: 1.89 %); assay type: functional
[31] = system: SGC-7901; test: Induction of ROS-mediated apoptosis in human SGC-7901 cells assessed as viable cells at 2 uM incubated for 48 hrs by annexin V-PE and 7-AAD staining based flow cytometry analysis (reference value: 93.6 %); assay type: functional; conditions: read-out: Activity
[32] = system: SGC-7901; test: Induction of ROS generation in human SGC-7901 cells incubated for 48 hrs by DCFH-DA staining based fluorescence microscopic analysis; assay type: functional, cell-based; conditions: dose 1-4 µM
[33] = system: SGC-7901; test: Induction of apoptosis in human SGC-7901 cells assessed as late apoptotic cells incubated for 48 hrs by annexin-V-FITC and PI staining based fluorescence microscopic analysis; assay type: functional, cell-based; conditions: dose 1-4 µM
[34] = system: SGC-7901; test: Induction of apoptosis in human SGC-7901 cells assessed as early apoptotic cells at 1 uM incubated for 48 hrs by annexin-V-FITC and PI staining based fluorescence microscopic analysis (reference value: 1.87 %); assay type: functional

Question: For COc1ccccc1Cn1n[n+](C)c2c1C(C)(C)[C@@H]1CC[C@]3(C)[C@H](CC[C@@H]4[C@H]5[C@H]6OC[C@@]5(CCC6(C)C)CC[C@]43C)[C@@]1(C)C2.[I-], which viability at 1 µM [1] is on record?
Answer: 66.9%

Question: And the Activity [2]?
Answer: 22.73%

Question: And the Activity [3]?
Answer: 42.96%

Question: What about the Activity [4] of the same molecule?
Answer: 78.9%

Question: What about the Activity [5] of the same molecule?
Answer: 2.92%

Question: And the Activity [6]?
Answer: 10.81%

Question: And the Activity [7]?
Answer: 92.2%

Question: What about the Activity [8] of the same molecule?
Answer: 11.5%

Question: What about the Activity [9] of the same molecule?
Answer: 2%

Question: And the Activity [10]?
Answer: Dose-dependent effect

Question: And the Activity [11]?
Answer: Dose-dependent effect

Question: What about the Activity [12] of the same molecule?
Answer: 95%

Question: And the Activity [13]?
Answer: Dose-dependent effect

Question: What about the Activity [14] of the same molecule?
Answer: 23%

Question: What about the Activity [15] of the same molecule?
Answer: 33.47%

Question: What about the Activity [16] of the same molecule?
Answer: Dose-dependent effect

Question: What about the Activity [17] of the same molecule?
Answer: Active

Question: What about the Activity [18] of the same molecule?
Answer: 2.07%

Question: What does the source list for C[n+]1nn(Cc2c(F)cccc2Cl)c2c1C[C@]1(C)[C@H]3CC[C@@H]4[C@H]5[C@H]6OC[C@@]5(CCC6(C)C)CC[C@@]4(C)[C@]3(C)CC[C@H]1C2(C)C.[I-]?
Answer: Activity [19]: Dose-dependent effect; Ratio IC50 [20]: 2.08; Activity [21]: Dose-dependent effect; Activity [22]: Dose-dependent effect; Activity [23]: Dose-dependent effect; viability at 4 µM [24]: 15.3%; Activity [25]: 1.21%; viability at 4 µM [26]: 0.494%; Activity [27]: 8.46%; Activity [28]: Dose-dependent effect; Activity [29]: 6.13%; Activity [30]: 26.5%; viability at 2 µM [31]: 60.2%; Activity [32]: Dose-dependent effect; Activity [33]: Dose-dependent effect; Activity [34]: 10.7%
